Reference: article PMC3213090, “Phytophthora sojae Avirulence Effector Avr3b is a Secreted NADH and ADP-ribose Pyrophosphorylase that Modulates Plant Immunity” (PLoS Pathogens, 2011)

Experiments:
FLAG:AtNUDT7 = target: T1, FLAG:AtNUDT7 (Arabidopsis thaliana, UniProt Q9SU14); test: phosphate release coupled to calf alkaline phosphatase, molybdate A820; type: biochemical; details: 2 mM substrate, 5 mM MgCl2, 1 mM DTT, pH 8.5, 37 C; immunoprecipitate, not homogeneous
T1 construct: gene NUDT7; FLAG tag fused; Nicotiana benthamiana transient expression, anti-FLAG immunoprecipitated, eluted
T1 sequence (Q9SU14 1-282): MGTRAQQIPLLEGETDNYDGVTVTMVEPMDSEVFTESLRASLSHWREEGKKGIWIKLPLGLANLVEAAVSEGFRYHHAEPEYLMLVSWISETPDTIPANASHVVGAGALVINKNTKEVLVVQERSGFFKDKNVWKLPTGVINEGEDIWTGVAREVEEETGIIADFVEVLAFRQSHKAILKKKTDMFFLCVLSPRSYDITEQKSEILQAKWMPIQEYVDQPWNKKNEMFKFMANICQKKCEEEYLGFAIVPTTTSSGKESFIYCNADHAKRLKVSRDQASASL

[1] = target: T2, FLAG:Avr3b^P6497 (Avh307^P6497) (Phytophthora sojae, UniProt E0W4V8); test: as above; type: biochemical; details: 2 mM substrate, 5 mM MgCl2, 1 mM DTT, pH 8.5, 37 C; immunoprecipitate, not homogeneous
T2 construct: gene Avh; signal peptide replaced by N-terminal FLAG tag; 34-35 kDa; precursor 315 residues; Nicotiana benthamiana agroinfiltration (PVX vector pGR107), anti-FLAG immunoprecipitated, 3xFLAG eluted
T2 sequence (E0W4V8 entry or part of it): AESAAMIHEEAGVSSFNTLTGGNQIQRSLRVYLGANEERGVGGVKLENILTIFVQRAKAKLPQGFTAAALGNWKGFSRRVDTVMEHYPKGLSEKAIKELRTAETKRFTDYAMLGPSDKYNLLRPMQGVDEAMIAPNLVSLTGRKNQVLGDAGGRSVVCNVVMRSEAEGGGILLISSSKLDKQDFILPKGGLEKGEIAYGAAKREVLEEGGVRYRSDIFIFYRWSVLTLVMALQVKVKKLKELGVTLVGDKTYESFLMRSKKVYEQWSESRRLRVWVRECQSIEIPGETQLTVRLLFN

Row | Structure (SMILES) | relative hydrolase activity (ratio over GFP) (FLAG:AtNUDT7) | relative hydrolase activity (ratio over GFP) [1]
1 | Nc1ncnc2c1ncn2[C@@H]1O[C@H](COP(=O)(O)OP(=O)(O)OC[C@H]2OC(O)[C@H](O)[C@@H]2O)[C@@H](O)[C@H]1O (stereo partly shown) [ADP-ribose] | FLAG:AtNUDT7 and FLAG:Avr3b^P6497 immunoprecipitates could both hydrolyze ADPR and NADH | FLAG:AtNUDT7 and FLAG:Avr3b^P6497 immunoprecipitates could both hydrolyze ADPR and NADH
2 | NC(=O)C1=CN([C@@H]2O[C@H](COP(=O)(O)OP(=O)(O)OC[C@H]3O[C@@H](n4cnc5c(N)ncnc54)[C@H](O)[C@@H]3O)[C@@H](O)[C@H]2O)C=CC1 [NADH] | FLAG:AtNUDT7 and FLAG:Avr3b^P6497 immunoprecipitates could both hydrolyze ADPR and NADH | FLAG:AtNUDT7 and FLAG:Avr3b^P6497 immunoprecipitates could both hydrolyze ADPR and NADH
